pKi: −log10 of the molar value. “And” between values parts separate entries of the source, which are not always exact repeats. Equal entries are not always repeated.
These molecules were tested against Voltage-dependent L-type calcium channel subunit alpha-1C (Rattus norvegicus, UniProt P22002).
Sequence of Voltage-dependent L-type calcium channel subunit alpha-1C (P22002 whole entry): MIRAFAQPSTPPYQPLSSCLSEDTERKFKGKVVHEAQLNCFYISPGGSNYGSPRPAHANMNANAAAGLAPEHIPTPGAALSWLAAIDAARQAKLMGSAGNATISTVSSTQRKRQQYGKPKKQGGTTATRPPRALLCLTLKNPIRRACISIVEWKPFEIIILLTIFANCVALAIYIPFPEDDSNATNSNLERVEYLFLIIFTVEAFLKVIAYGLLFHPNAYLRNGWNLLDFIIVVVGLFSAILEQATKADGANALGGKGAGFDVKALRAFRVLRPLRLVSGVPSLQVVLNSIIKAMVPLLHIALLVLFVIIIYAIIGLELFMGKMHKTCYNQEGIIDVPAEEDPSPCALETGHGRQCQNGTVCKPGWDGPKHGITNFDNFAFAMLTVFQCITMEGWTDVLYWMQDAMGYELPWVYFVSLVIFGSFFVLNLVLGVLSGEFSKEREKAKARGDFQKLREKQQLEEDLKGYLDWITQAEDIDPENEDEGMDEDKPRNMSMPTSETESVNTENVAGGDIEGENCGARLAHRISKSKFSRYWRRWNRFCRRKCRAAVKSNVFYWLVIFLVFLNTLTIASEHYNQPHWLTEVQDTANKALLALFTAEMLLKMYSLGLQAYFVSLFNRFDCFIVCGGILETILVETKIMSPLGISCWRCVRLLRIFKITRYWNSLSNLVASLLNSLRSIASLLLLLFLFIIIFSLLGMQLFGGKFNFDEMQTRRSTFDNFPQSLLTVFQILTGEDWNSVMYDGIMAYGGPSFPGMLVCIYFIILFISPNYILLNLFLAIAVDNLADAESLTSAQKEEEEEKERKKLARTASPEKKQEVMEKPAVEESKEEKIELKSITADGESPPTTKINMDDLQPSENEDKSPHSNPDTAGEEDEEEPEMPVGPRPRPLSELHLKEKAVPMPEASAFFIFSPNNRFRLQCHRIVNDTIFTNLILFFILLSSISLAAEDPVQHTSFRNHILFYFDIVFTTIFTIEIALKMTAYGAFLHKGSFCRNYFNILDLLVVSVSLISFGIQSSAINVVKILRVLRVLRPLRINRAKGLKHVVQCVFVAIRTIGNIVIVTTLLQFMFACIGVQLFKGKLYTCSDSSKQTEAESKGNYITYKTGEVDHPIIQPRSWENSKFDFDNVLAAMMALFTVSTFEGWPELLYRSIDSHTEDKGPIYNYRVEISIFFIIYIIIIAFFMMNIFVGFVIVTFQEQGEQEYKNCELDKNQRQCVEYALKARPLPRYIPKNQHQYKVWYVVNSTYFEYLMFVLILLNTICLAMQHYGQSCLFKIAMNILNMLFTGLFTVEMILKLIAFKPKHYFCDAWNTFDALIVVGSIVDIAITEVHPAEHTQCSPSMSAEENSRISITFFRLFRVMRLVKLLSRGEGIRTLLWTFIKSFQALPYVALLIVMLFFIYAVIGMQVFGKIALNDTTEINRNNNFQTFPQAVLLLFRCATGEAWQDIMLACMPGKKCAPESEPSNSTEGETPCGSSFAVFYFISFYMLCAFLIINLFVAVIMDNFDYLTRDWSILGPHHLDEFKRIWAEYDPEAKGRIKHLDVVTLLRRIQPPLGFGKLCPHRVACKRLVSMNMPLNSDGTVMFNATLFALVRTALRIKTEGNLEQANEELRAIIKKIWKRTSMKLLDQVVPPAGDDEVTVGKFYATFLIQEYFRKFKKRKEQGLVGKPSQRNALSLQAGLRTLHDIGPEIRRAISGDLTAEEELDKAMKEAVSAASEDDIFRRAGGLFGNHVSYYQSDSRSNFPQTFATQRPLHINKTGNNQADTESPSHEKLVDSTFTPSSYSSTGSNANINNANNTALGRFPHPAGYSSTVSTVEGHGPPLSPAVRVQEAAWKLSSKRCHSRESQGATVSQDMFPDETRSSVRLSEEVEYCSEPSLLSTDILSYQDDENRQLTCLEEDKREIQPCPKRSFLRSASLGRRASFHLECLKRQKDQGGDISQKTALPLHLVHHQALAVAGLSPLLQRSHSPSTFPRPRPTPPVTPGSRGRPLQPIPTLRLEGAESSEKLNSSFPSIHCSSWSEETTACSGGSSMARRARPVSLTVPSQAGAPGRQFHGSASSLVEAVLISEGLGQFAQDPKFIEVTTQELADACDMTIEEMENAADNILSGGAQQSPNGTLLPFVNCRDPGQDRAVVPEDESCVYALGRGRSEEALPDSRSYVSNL
In the case of `Cc1cccc(C)c1NC(=O)CN1CCN(CCCC(c2ccc(F)cc2)c2ccc(F)cc2)CC1`, the pKi was 6.52 and 6.73. In the case of `CN(C)C(=O)C(CCN1CCC(O)(c2ccc(Cl)cc2)CC1)(c1ccccc1)c1ccccc1`, the pKi was 6.69 and 6.90. `COc1ccc(CCN(C)CCCC2(c3ccc(OC)c(OC)c3)S(=O)(=O)CCCS2(=O)=O)cc1OC` was tested, and the pKi was 5.84 and 6.38. In the case of `CC(Cc1ccccc1)NCCC(c1ccccc1)c1ccccc1` (centres undefined), the pKi was 6.42 and 6.49. `CC(C)COC[C@H](CN(Cc1ccccc1)c1ccccc1)N1CCCC1` was tested, and the pKi was 6.26 and 6.62. Molecule `COC(=O)C1=C(C)N=C(C)C([N+](=O)[O-])C1c1ccccc1C(F)(F)F` (centres undefined) [Bay k 8644] has a pKi of 5.95. With `COc1ccc(CCN(C)CCCC(C#N)(c2cc(OC)c(OC)c(OC)c2)C(C)C)cc1OC` (centres undefined) [GALLOPAMIL] the pKi was 7.67 and 7.65. With `CCOP(=O)(Cc1ccc(-c2nc3ccccc3s2)cc1)OCC` [NSC_53421] the pKi was 5.77 and 6.35. In the case of `CCOC(=O)C1=C(C)N=C(C)C(C(=O)OCC)C1c1ccccc1C(F)(F)F` (centres undefined) [NSC_168089], the pKi was 6.57.

Reference: BindingDB's records for PubMed 3012067 (Johns Hopkins University, 1986)
